In patent publication US10835549B2, “Polyplexes” (Vanderbilt University, priority 2013, dated 2020):
No end group written: not given here.

What was measured:
rat aortic smooth muscle = assay: Rat aortic smooth muscle contraction (muscle bath, phenylephrine); settings: 30 minutes incubation, phenylephrine challenge, n=6
Method: FIGS. 71-73 show the results of an example wherein rat aortic smooth muscle was suspended on a muscle bath apparatus. Tissue was equilibrated in bicarbonate buffer and challenged with KCl (110 mM) to confirm viability of the tissue. After returning the tissue to basal tension, the smooth muscle was challenged with 5*10^−8 M phenylephrine (5*10^−8 M) and then washed with bicarbonate buffer. The tissue was then returned to basal tension through subsequent washes of bicarbonate buffer and then either treated with control, AZX 100 peptide, or AZX polyplexes. After 30 minutes of incubation, the tissue was challenged with phenylephrine, and the contractile force was compared with the initial contraction to determine the percent inhibition that occurs. […] (n=6)

human saphenous vein = assay: HSV enhanced relaxation with AZX 100 (muscle bath, phenylephrine / sodium nitroprusside); settings: 30 minutes incubation, n=3
[1] = system: human bronchiolar airway smooth muscle (HASM); assay: Relaxation of human bronchiolar airway smooth muscle (HASM); set-up: unit not given here
[2] = Flow cytometric quantification of intracellular uptake and retention; settings: human
Method: (§1) HCAVSMCs were grown to 80-90% confluence, harvested, and seeded at 20,000 cells per well in a 24-well plate and were allowed to adhere overnight in low serum media. […] Following treatment, cells were washed with PBS −/−, washed with CellScrub buffer (Genlantis) for 10 minutes at room temperature to remove extracellular polyplexes and/or peptide, washed 2× in PBS −/−, and the media was refreshed with complete growth media. Cells were then incubated for an additional 0, 12, 24, 72, or 120 hours. Cells were then washed with PBS −/−, trypsinized, and resuspended in 0.1% Trypan blue in PBS (−/−) for analysis on a FACSCalibur flow cytometer (Becton Dickinson) with BD CellQuest™ Pro software (V 5.2). Data was exported and analyzed with FlowJo software (V 7.6.4). All samples are run in triplicate.
(§2) Studies were done using a fluorescently labeled peptide and flow cytometry. […] Exponential lines were fit to each data set in order to determine a fluorescence half-life for each treatment group. Mean Fluorescence Intensity values were reported as increase in MFI compared to untreated controls, n=3.

HCAVSMCs = assay: as above; settings: HCAVSMCs, up to 5 days after treatment
Method: as §1, §2

Row | Substance | inhibition of contraction (rat aortic smooth muscle) | enhancement of relaxation (human saphenous vein) | Relaxation of HASM ([1]; HASM 11, .5 mM) | Relaxation of HASM ([1]; HASM 17, 1 mM) | Relaxation of HASM ([1]; HASM 17, .5 mM) | Relaxation of HASM ([1]; HASM 18, 1 mM) | Relaxation of HASM ([1]; HASM 20, 1 mM) | Relaxation of HASM ([1]; HASM 20, .5 mM) | Relaxation of HASM ([1]; HASM 22, 1 mM) | Relaxation of HASM ([1]; HASM 22, .5 mM) | half-life at 10 μM [2] | intracellular retention of the peptide (HCAVSMCs)
1 | AZX 100 peptide: AZX100 peptide (SEQ ID NO: 2), which can be utilized for airway relaxation (YARAAARQARAWLRRASAPLPGLK; AZX-100 Sequence) | dose dependent inhibition of contraction | dose dependent enhancement of relaxation | 24 | 25 | 10 | 80 | 76 | 36 | 84 | 40 |  | 
2 | YARAAARQARAKALARQLGVAA [MK2i] |  |  |  |  |  |  |  |  |  |  | 98.4 h | more rapidly lost intracellular peptide
